Laboratory results as given in patent US7700644B2, “Isoflavonoid dimers” (Novogen Research Pty Ltd, priority 2005, dated 2010).

Key:
[1] = tested on: Neonatal foreskin fibroblasts (NFF); test: Normal cell toxicity, MTT proliferation assay, NFF; format: cell-based, human; settings: Homo sapiens, 120 h; NFF fibroblast, cultured 5 days, MTT
Method: (§1) Neonatal foreskin fibroblasts (NFF) were a gift from Dr. Peter Parsons (Queensland Institute of Medical Research). RK-13 (rabbit kidney) cells were obtained from Miller Whalley (Macquarie University). Both cell types were cultured in RPMI supplemented with 10% FCS (CSL, Australia), penicillin (100 U/ml), streptomycin ([…]), L-glutamine (2 mM) and sodium bicarbonate (1.2 g/L), and cultured at 37° C. in a humidified atmosphere of 5% CO2.
(§2) IC50 values were determined for each cell line. Cells were seeded in 96-well plates at an appropriate cell density as determined from growth kinetics analysis. NFFs were cultured for 5 days and RK-13s for 24 hrs in the absence and presence of the test compounds. Cell proliferation was assessed after the addition of 20 μl of 3-4,5 dimethylthiazol-2,5-diphenyl tetrazolium bromide (MTT, 2.5 mg/ml in PBS, Sigma) for 3-4 hrs at 37° C. according to manufacturer's instructions. IC50 values were calculated from semi-log plots of % of control proliferation on the y-axis against log dose on the x-axis.
Duplicate cytotoxicity assays against NFF cells were conducted with dehydroequol (DHE), 4,9-dihydroxy-14,15-dimethoxy-12a-(3′,4′-dimethoxyphenyl)-3,10-dimethyl-2,11-dioxa-(1H,12H)-6b,6c,12a,16b-tetrahydronaphtho[1,2-g]chrysene (2) from Example 6.1 and cisplatin.

[2] = tested on: RK-13 (rabbit kidney) cells; test: Normal cell toxicity, MTT proliferation assay, rabbit kidney cells; format: cell-based; settings: Oryctolagus cuniculus, 24 hrs
Method: as §1, §2

[3] = tested on: A2780 (Ovarian); test: In vitro cytotoxicity, MTT proliferation assay, A2780; format: cell-based, human; settings: Homo sapiens
Method: (§3) The human pancreatic cancer cell line, HPAC (CRL-2119) was routinely cultured in 1:1 mixture DMEM (Sigma) plus Ham's F12 (Sigma) medium containing HEPES (15 mM), insulin (0.002 mg/ml), transferrin (0.005 mg/ml), hydrocortisone, (40 ng/ml), epidermal growth factor (10 ng/ml). The ovarian cancer cell line CP70 was obtained as a gift from Dr. Gil Mor (Yale University) and cultured in a 1:1 mixture DMEM plus Ham's F12 medium, and SKOV-3 was purchased from ATCC and cultured in McCoy's 5a medium. The breast cancer cell line MDA-MB-468 cultured in Leibovitz's L-15 medium.
(§4) All cultures were supplemented with 10% FCS(CSL, Australia), penicillin (100 U/ml), streptomycin ([…]), L-glutamine (2 mM) and sodium bicarbonate (1.2 g/L), and cultured at 37° C. in a humidified atmosphere of 5% CO2. All remaining cell lines were purchased from ATCC (Maryland, USA) except where noted.
as §2

[4] = tested on: ovarian cancer cell line CP70; test: In vitro cytotoxicity, MTT proliferation assay, CP70; format: cell-based, human; settings: Homo sapiens
Method: as §3, §4, §2

[5] = tested on: SKOV-3 (Ovarian); test: In vitro cytotoxicity, MTT proliferation assay, SKOV-3; format: cell-based, human; settings: Homo sapiens, SK-OV-3; Ovarian SKOV-3
Method: as §3, §4, §2

[6] = tested on: PC3 (Prostate); test: In vitro cytotoxicity, MTT proliferation assay, PC3; format: cell-based, human; settings: Homo sapiens
Method: as §3, §4, §2

[7] = tested on: LNCaP (Prostate); test: In vitro cytotoxicity, MTT proliferation assay, LNCaP; format: cell-based, human; settings: Homo sapiens
Method: as §3, §4, §2

[8] = tested on: DU145 (Prostate); test: In vitro cytotoxicity, MTT proliferation assay, DU145; format: cell-based, human; settings: Homo sapiens, DU-145
Method: as §3, §4, §2

[9] = tested on: MCF-7 (Breast); test: In vitro cytotoxicity, MTT proliferation assay, MCF-7; format: cell-based, human; settings: Homo sapiens, MCF7; Breast MCF-7
Method: as §3, §4, §2

[10] = tested on: breast cancer cell line MDA-MB-468; test: In vitro cytotoxicity, MTT proliferation assay, MDA-MB-468; format: cell-based, human; settings: Homo sapiens; Breast MDA-MB-468
Method: as §3, §4, §2

[11] = tested on: HTB-138 (Glioma); test: In vitro cytotoxicity, MTT proliferation assay, HTB-138; format: cell-based, human; settings: Homo sapiens; Glioma HTB-138
Method: as §3, §4, §2

[12] = tested on: human pancreatic cancer cell line, HPAC (CRL-2119); test: In vitro cytotoxicity, MTT proliferation assay, CRL-2119; format: cell-based; settings: Homo sapiens, HPAC; Pancreatic CRL-2119
Method: as §3, §4, §2

[13] = tested on: RPMI-8226 (Leukemic); test: In vitro cytotoxicity, MTT proliferation assay, RPMI-8226; format: cell-based; settings: Homo sapiens; Leukemic RPMI-8226
Method: as §3, §4
as §2, with “NFFs were cultured for 5 days and RK-13s for 24 hrs in the absence and presence of the test compounds.” left out

[14] = tested on: CCRF-CEM (Leukemic); test: In vitro cytotoxicity, MTT proliferation assay, CCRF-CEM; format: cell-based; settings: Homo sapiens
Method: as §3, §4
as §2, with “NFFs were cultured for 5 days and RK-13s for 24 hrs in the absence and presence of the test compounds.” left out

[15] = tested on: NCI-H23 (Lung); test: In vitro cytotoxicity, MTT proliferation assay, NCI-H23; format: cell-based; settings: Homo sapiens
Method: as §3, §4
as §2, with “NFFs were cultured for 5 days and RK-13s for 24 hrs in the absence and presence of the test compounds.” left out

[16] = tested on: NCI-H460 (Lung); test: In vitro cytotoxicity, MTT proliferation assay, NCI-H460; format: cell-based, human; settings: Homo sapiens
Method: as §3, §4, §2

[17] = tested on: HT-29 (Colorectal); test: In vitro cytotoxicity, MTT proliferation assay, HT-29; format: cell-based, human; settings: Homo sapiens; Colorectal HT-29
Method: as §3, §4, §2

[18] = tested on: HCT-15 (Colorectal); test: In vitro cytotoxicity, MTT proliferation assay, HCT-15; format: cell-based, human; settings: Homo sapiens; Colorectal HCT-15
Method: as §3, §4, §2

[19] = tested on: MM200 (Melanoma); test: In vitro cytotoxicity, MTT proliferation assay, MM200; format: cell-based, human; settings: Homo sapiens
Method: as §3, §4, §2

[20] = tested on: MM96L (Melanoma); test: In vitro cytotoxicity, MTT proliferation assay, MM96L; format: cell-based, human; settings: Homo sapiens
Method: as §3, §4, §2

[21] = Oral pharmacokinetics in mice; format: in vivo, female BALB/c mice; settings: female, BALB/c, mouse, blood, 50 mg/kg, oral gavage, read-out: Free concentration in blood
Method: 4,9-Dihydroxy-14,15-dimethoxy-12a-(3′,4′-dimethoxyphenyl)-3,10-dimethyl-2,11-dioxa-(1H,12H)-6b,6c,12a,16b-tetrahydronaphtho[1,2-g]chrysene (2) from Example 6.1 was prepared as homogenous suspensions in 1% CMC (m:v, water). The Cpd. 2 formulation was delivered orally by gavage to female BALB/c mice at a dosage of 50 mg/kg. Three animals were allocated to each time point (15 min, 30 min, 1 hr, 4 hr and 24 hr). At each respective time point, animals were euthanased by cervical dislocation and blood collected. Free Cpd.

Oc1ccc(C2=Cc3ccc(O)cc3OC2)cc1 [DHE, 3-(4-hydroxyphenyl)chrom-3-en-7-ol]
IC50 [1]: > 150 µM | IC50 [2]: > 150 µM | IC50 [3]: 1.7 ± 0.61 µM | IC50 [4]: 1.69 ± 0.62 µM | IC50 [5]: 21.8 ± 4.65 µM | IC50 [6]: 9.09 ± 8.12 µM | IC50 [7]: 4.8 ± 3.8 µM | IC50 [8]: 5.95 ± 1.5 µM | IC50 [9]: 21.5 ± 13.2 µM | IC50 [10]: 7.9 ± 3.5 µM | IC50 [11]: 7.35 ± 0.89 µM | IC50 [12]: 56.6 ± 16.8 µM | IC50 [13]: 3.72 ± 0.08 µM | IC50 [14]: 1.7 ± 0.68 µM | IC50 [15]: 8.75 ± 7.2 µM | IC50 [16]: 10.6 ± 3.8 µM | IC50 [17]: 50.5 ± 21.9 µM | IC50 [18]: 24.4 ± 12.6 µM | IC50 [19]: 4.8 µM | IC50 [20]: 4.7 µM | concentration at 15 min ([21]; Time 0.25 (15 min)): 3300 nM | concentration at 30 min ([21]; Time 0.5 (30 min)): 2900 nM | concentration at 1 h ([21]; Time 1 (1 hr)): 1500 nM | concentration at 4 h ([21]; Time 4 (4 hr)): 1300 nM | concentration at 24 h ([21]; Time 24 (24 hr)): 150 nM
